Laboratory results as given in ChEMBL document CHEMBL3352611, “Deconstruction of 6,7-dimethoxy-1,2,3,4-tetrahydroisoquinoline moiety to separate P-glycoprotein (P-gp) activity from σ2 receptor affinity in mixed P-gp/σ2 receptor agents” (Eur J Med Chem, 2015).

Target: Sigma non-opioid intracellular receptor 1 (Cavia porcellus, UniProt Q60492)
Sequence (Q60492 whole entry): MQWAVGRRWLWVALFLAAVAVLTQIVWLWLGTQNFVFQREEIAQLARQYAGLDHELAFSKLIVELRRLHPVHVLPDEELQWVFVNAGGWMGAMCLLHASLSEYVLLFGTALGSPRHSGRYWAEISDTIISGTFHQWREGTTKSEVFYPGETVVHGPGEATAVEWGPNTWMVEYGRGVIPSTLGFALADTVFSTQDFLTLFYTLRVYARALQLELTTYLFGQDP
Test: Displacement of (+)-[3H]-pentazocine from sigma1 recetor in guinea-pig brain membranes without cerebellum by radioligand binding assay
Format: cell membranes, Membrane
Details: not given
In the case of `CCN(CCCCc1cn(-c2ccc(F)cc2)c2ccccc12)Cc1ccc(OC)c(OC)c1`, the Ki is reported as 18.9 nM.
`CCN(CCCCc1cn(-c2ccc(F)cc2)c2ccccc12)C1CCc2c1ccc(OC)c2OC` (racemic) gave a Ki of 59.2 nM.
Work on `COc1ccc(CNCCCCc2cn(-c3ccc(F)cc3)c3ccccc23)cc1` yielded a Ki of 129 nM.
Work on `COc1ccc2c(c1OC)CC[C@H]2NCCCCc1cn(-c2ccc(F)cc2)c2ccccc12` yielded a Ki of 175 nM.
Work on `CCN(CCCCc1cn(-c2ccc(F)cc2)c2ccccc12)Cc1cccc(OC)c1` yielded a Ki of 2.44 nM.
For `COc1ccc(CCN(C)CCCCc2cn(-c3ccc(F)cc3)c3ccccc23)cc1OC`, the Ki was 337 nM.
`COc1ccc(CCNCCCCc2cn(-c3ccc(F)cc3)c3ccccc23)cc1` showed a Ki of 431 nM.
With `COc1ccc(CCNCCCCc2cn(-c3ccc(F)cc3)c3ccccc23)cc1OC` the Ki was 939 nM.
With `COc1ccc(CNCCCCc2cn(-c3ccc(F)cc3)c3ccccc23)cc1OC` the Ki was 2700 nM.
`COc1cccc(CCNCCCCc2cn(-c3ccc(F)cc3)c3ccccc23)c1` gave a Ki of 151 nM.
`COc1ccc(CCN(C)CCCCc2cn(-c3ccc(F)cc3)c3ccccc23)cc1` gave a Ki of 67.4 nM.
For `CCN(CCCCc1cn(-c2ccc(F)cc2)c2ccccc12)[C@H]1CCc2c1ccc(OC)c2OC`, the Ki was 50.8 nM.
For `COc1ccc2c(c1OC)CCC2NCCCCc1cn(-c2ccc(F)cc2)c2ccccc12` (racemic), the Ki was 215 nM.
`COc1ccc2c(c1OC)CC[C@@H]2NCCCCc1cn(-c2ccc(F)cc2)c2ccccc12` gave a Ki of 122 nM.
`CCN(CCCCc1cn(-c2ccc(F)cc2)c2ccccc12)[C@@H]1CCc2c1ccc(OC)c2OC` showed a Ki of 126 nM.
For `COc1cccc(CNCCCCc2cn(-c3ccc(F)cc3)c3ccccc23)c1`, the Ki was 544 nM.
`COc1cccc(CCN(C)CCCCc2cn(-c3ccc(F)cc3)c3ccccc23)c1` showed a Ki of 17.5 nM.

Target: Sigma non-opioid intracellular receptor 1 (Cavia porcellus) (UniProt Q60492)
Sequence (Q60492 whole entry): as above
Details: Brain, Membrane, 10 pM
`CCN(CCCCc1cn(-c2ccc(F)cc2)c2ccccc12)Cc1ccc(OC)c(OC)c1` gave an inhibition of 85%.

Target: not listed separately
Test: Displacement of [3H]-DTG from sigma2 receptor in rat liver membranes in presence of […] (+)-pentazocine by radioligand binding assay
Format: cell membranes, Membrane
Details: not given
Compound `CCN(CCCCc1cn(-c2ccc(F)cc2)c2ccccc12)Cc1ccc(OC)c(OC)c1` has a Ki of 97.1 nM.
For `CCN(CCCCc1cn(-c2ccc(F)cc2)c2ccccc12)C1CCc2c1ccc(OC)c2OC` (racemic), the Ki was 27.6 nM.
`COc1ccc(CNCCCCc2cn(-c3ccc(F)cc3)c3ccccc23)cc1` gave a Ki of 231 nM.
For `COc1ccc2c(c1OC)CC[C@H]2NCCCCc1cn(-c2ccc(F)cc2)c2ccccc12`, the Ki was 252 nM.
`CCN(CCCCc1cn(-c2ccc(F)cc2)c2ccccc12)Cc1cccc(OC)c1` gave a Ki of 91 nM.
With `COc1ccc(CCN(C)CCCCc2cn(-c3ccc(F)cc3)c3ccccc23)cc1OC` the Ki was 346 nM.
Compound `COc1cc2c(cc1OC)CN(CCCCc1cn(-c3ccc(F)cc3)c3ccccc13)CC2` has a Ki of 5.34 nM.
For `CCN(CCCCc1cn(-c2ccc(F)cc2)c2ccccc12)Cc1ccc(OC)cc1`, the Ki was 69.8 nM.
Compound `COc1ccc(CCNCCCCc2cn(-c3ccc(F)cc3)c3ccccc23)cc1` has a Ki of 1400 nM.
Compound `COc1ccc(CCNCCCCc2cn(-c3ccc(F)cc3)c3ccccc23)cc1OC` has a Ki of 2100 nM.
Work on `COc1ccc(CNCCCCc2cn(-c3ccc(F)cc3)c3ccccc23)cc1OC` yielded a Ki of 169 nM.
Compound `COc1cccc(CCNCCCCc2cn(-c3ccc(F)cc3)c3ccccc23)c1` has a Ki of 580 nM.
Compound `COc1ccc(CCN(C)CCCCc2cn(-c3ccc(F)cc3)c3ccccc23)cc1` has a Ki of 334 nM.
Compound `CCN(CCCCc1cn(-c2ccc(F)cc2)c2ccccc12)[C@H]1CCc2c1ccc(OC)c2OC` has a Ki of 19 nM.
With `COc1ccc2c(c1OC)CCC2NCCCCc1cn(-c2ccc(F)cc2)c2ccccc12` (racemic) the Ki was 115 nM.
Compound `COc1ccc2c(c1OC)CC[C@@H]2NCCCCc1cn(-c2ccc(F)cc2)c2ccccc12` has a Ki of 152 nM.
For `CCN(CCCCc1cn(-c2ccc(F)cc2)c2ccccc12)[C@@H]1CCc2c1ccc(OC)c2OC`, the Ki was 35.2 nM.
Work on `COc1cccc(CNCCCCc2cn(-c3ccc(F)cc3)c3ccccc23)c1` yielded a Ki of 227 nM.
`COc1cccc(CCN(C)CCCCc2cn(-c3ccc(F)cc3)c3ccccc23)c1` gave a Ki of 111 nM.

Target: ATP-dependent translocase ABCB1 (Homo sapiens, UniProt P08183)
Sequence (P08183 whole entry): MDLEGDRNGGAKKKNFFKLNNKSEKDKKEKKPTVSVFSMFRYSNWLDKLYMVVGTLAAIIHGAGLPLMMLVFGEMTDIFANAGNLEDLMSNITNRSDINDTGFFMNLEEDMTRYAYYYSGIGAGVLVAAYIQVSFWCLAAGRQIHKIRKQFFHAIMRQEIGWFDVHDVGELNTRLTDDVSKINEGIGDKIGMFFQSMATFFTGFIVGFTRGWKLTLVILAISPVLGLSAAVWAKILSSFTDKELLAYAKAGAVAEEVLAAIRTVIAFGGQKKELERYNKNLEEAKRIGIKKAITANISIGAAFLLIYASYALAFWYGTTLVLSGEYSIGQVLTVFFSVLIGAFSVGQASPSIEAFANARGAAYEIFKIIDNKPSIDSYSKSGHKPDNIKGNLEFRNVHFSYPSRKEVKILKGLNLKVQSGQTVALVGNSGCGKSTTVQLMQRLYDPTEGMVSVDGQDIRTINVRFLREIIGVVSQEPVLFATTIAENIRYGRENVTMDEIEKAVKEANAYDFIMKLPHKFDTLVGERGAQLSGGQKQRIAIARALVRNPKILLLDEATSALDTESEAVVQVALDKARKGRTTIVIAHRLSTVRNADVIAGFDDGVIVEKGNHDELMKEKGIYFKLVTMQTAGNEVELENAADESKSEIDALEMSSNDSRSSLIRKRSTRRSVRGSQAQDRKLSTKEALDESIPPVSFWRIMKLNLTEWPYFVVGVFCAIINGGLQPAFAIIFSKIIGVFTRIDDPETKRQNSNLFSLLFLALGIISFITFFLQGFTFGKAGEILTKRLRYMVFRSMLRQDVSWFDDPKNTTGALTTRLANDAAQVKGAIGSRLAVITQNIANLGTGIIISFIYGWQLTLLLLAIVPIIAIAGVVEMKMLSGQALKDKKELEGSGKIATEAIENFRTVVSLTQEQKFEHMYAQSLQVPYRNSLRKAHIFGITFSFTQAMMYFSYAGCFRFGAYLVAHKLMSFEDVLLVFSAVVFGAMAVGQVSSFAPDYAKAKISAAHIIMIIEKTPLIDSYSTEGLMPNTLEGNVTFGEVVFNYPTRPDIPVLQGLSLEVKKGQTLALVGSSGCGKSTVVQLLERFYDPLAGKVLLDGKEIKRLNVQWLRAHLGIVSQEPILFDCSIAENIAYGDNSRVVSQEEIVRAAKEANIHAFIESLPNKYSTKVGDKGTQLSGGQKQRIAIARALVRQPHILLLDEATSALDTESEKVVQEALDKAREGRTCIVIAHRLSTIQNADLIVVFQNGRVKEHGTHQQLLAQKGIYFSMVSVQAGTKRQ
Test: Activity at MDR1 (unknown origin) expressed in MDCK-MDR1 cells by Calcein-AM assay
Format: cell-based
Details: not given
Compound `CCN(CCCCc1cn(-c2ccc(F)cc2)c2ccccc12)Cc1ccc(OC)c(OC)c1` has an EC50 of 1790 nM.
With `CCN(CCCCc1cn(-c2ccc(F)cc2)c2ccccc12)C1CCc2c1ccc(OC)c2OC` (racemic) the EC50 was 960 nM.
Compound `COc1ccc(CNCCCCc2cn(-c3ccc(F)cc3)c3ccccc23)cc1` has an EC50 of 7660 nM.
For `COc1ccc2c(c1OC)CC[C@H]2NCCCCc1cn(-c2ccc(F)cc2)c2ccccc12`, the EC50 was 3450 nM.
With `CCN(CCCCc1cn(-c2ccc(F)cc2)c2ccccc12)Cc1cccc(OC)c1` the EC50 was 4580 nM.
Compound `COc1ccc(CCN(C)CCCCc2cn(-c3ccc(F)cc3)c3ccccc23)cc1OC` has an EC50 of 1350 nM.
Compound `COc1cc2c(cc1OC)CN(CCCCc1cn(-c3ccc(F)cc3)c3ccccc13)CC2` has an EC50 of 210 nM.
For `CCN(CCCCc1cn(-c2ccc(F)cc2)c2ccccc12)Cc1ccc(OC)cc1`, the EC50 was 4680 nM.
In the case of `COc1ccc(CCNCCCCc2cn(-c3ccc(F)cc3)c3ccccc23)cc1`, the EC50 is reported as 2850 nM.
Work on `COc1ccc(CCNCCCCc2cn(-c3ccc(F)cc3)c3ccccc23)cc1OC` yielded an EC50 of 1120 nM.
With `COc1ccc(CNCCCCc2cn(-c3ccc(F)cc3)c3ccccc23)cc1OC` the EC50 was 1040 nM.
With `COc1cccc(CCNCCCCc2cn(-c3ccc(F)cc3)c3ccccc23)c1` the EC50 was 7200 nM.
`COc1ccc(CCN(C)CCCCc2cn(-c3ccc(F)cc3)c3ccccc23)cc1` showed an EC50 of 4490 nM.
For `CCN(CCCCc1cn(-c2ccc(F)cc2)c2ccccc12)[C@H]1CCc2c1ccc(OC)c2OC`, the EC50 was 700 nM.
In the case of `COc1ccc2c(c1OC)CCC2NCCCCc1cn(-c2ccc(F)cc2)c2ccccc12` (racemic), the EC50 is reported as 870 nM.
Compound `COc1ccc2c(c1OC)CC[C@@H]2NCCCCc1cn(-c2ccc(F)cc2)c2ccccc12` has an EC50 of 1340 nM.
`COc1cc2c(cc1OC)CN(CC/C=C1\CCCc3c(OC)cccc31)CC2` showed an EC50 of 820 nM.
With `CCN(CCCCc1cn(-c2ccc(F)cc2)c2ccccc12)[C@@H]1CCc2c1ccc(OC)c2OC` the EC50 was 1740 nM.
In the case of `COc1cccc(CNCCCCc2cn(-c3ccc(F)cc3)c3ccccc23)c1`, the EC50 is reported as 2950 nM.
`COc1cccc(CCN(C)CCCCc2cn(-c3ccc(F)cc3)c3ccccc23)c1` showed an EC50 of 6570 nM.

Test system: not listed separately
Test: Selectivity index, ratio of Ki for sigma1 recetor in guinea-pig brain membranes to Ki for sigma2 receptor in rat liver membranes
Format: cell membranes
Details: not given
In the case of `CCN(CCCCc1cn(-c2ccc(F)cc2)c2ccccc12)Cc1ccc(OC)c(OC)c1`, the Ratio Ki is reported as 0.19.
In the case of `CCN(CCCCc1cn(-c2ccc(F)cc2)c2ccccc12)C1CCc2c1ccc(OC)c2OC` (racemic), the Ratio Ki is reported as 2.14.
For `COc1ccc(CNCCCCc2cn(-c3ccc(F)cc3)c3ccccc23)cc1`, the Ratio Ki was 0.56.
For `COc1ccc2c(c1OC)CC[C@H]2NCCCCc1cn(-c2ccc(F)cc2)c2ccccc12`, the Ratio Ki was 0.69.
In the case of `CCN(CCCCc1cn(-c2ccc(F)cc2)c2ccccc12)Cc1cccc(OC)c1`, the Ratio Ki is reported as 0.03.
In the case of `COc1ccc(CCN(C)CCCCc2cn(-c3ccc(F)cc3)c3ccccc23)cc1OC`, the Ratio Ki is reported as 0.97.
`COc1cc2c(cc1OC)CN(CCCCc1cn(-c3ccc(F)cc3)c3ccccc13)CC2` gave a Ratio Ki of 260.
`COc1ccc(CCNCCCCc2cn(-c3ccc(F)cc3)c3ccccc23)cc1` showed a Ratio Ki of 0.3.
With `COc1ccc(CCNCCCCc2cn(-c3ccc(F)cc3)c3ccccc23)cc1OC` the Ratio Ki was 0.45.
`COc1ccc(CNCCCCc2cn(-c3ccc(F)cc3)c3ccccc23)cc1OC` gave a Ratio Ki of 16.
In the case of `COc1cccc(CCNCCCCc2cn(-c3ccc(F)cc3)c3ccccc23)c1`, the Ratio Ki is reported as 0.26.
In the case of `COc1ccc(CCN(C)CCCCc2cn(-c3ccc(F)cc3)c3ccccc23)cc1`, the Ratio Ki is reported as 0.2.
For `CCN(CCCCc1cn(-c2ccc(F)cc2)c2ccccc12)[C@H]1CCc2c1ccc(OC)c2OC`, the Ratio Ki was 2.67.
In the case of `COc1ccc2c(c1OC)CCC2NCCCCc1cn(-c2ccc(F)cc2)c2ccccc12` (racemic), the Ratio Ki is reported as 1.87.
Compound `COc1ccc2c(c1OC)CC[C@@H]2NCCCCc1cn(-c2ccc(F)cc2)c2ccccc12` has a Ratio Ki of 0.8.
For `CCN(CCCCc1cn(-c2ccc(F)cc2)c2ccccc12)[C@@H]1CCc2c1ccc(OC)c2OC`, the Ratio Ki was 3.58.
In the case of `COc1cccc(CNCCCCc2cn(-c3ccc(F)cc3)c3ccccc23)c1`, the Ratio Ki is reported as 2.4.
Work on `COc1cccc(CCN(C)CCCCc2cn(-c3ccc(F)cc3)c3ccccc23)c1` yielded a Ratio Ki of 0.16.
